≈ marks a conversion by molar mass, not a printed value. Like-named read-outs stand apart in the source and are kept apart here. Each block holds one molecule with its values, some of them ahead of it. Bridge positions count the residues as written; N and C are the ends. Ends that are not written are not given here. Peptide text beside a SMILES is read from it.
Columns and labels:
[1] = tested on: MRSA; test: Checkerboard assay, peptide with Gentamicin; type: cell-based, Staphylococcus aureus; details: for MIC: Staphylococcus aureus, 18 h
Description: Then, the microorganism cultures (1 × 10^6 cfu/mL) were inoculated into the plate wells and incubated at 37 °C for 18 h. The optical densities of the cultures were measured using an ELISA plate reader (Biotech Minneapolis, MN, USA). The lowest cumulative fractional inhibitory concentration (ΣFIC) was calculated with the following equation:(1) ΣFIC=Compound A treated in combination/Compound A, test in alone+Compound B treated in combination/Compound B, test in alone
ΣFIC ≤ 0.5 indicates synergy; 0.5 < Σ FIC ≤ 4 indicates an additive effect; and Σ FIC > 4 represents an antagonistic effect.

[2] = target: T1, chymotrypsin (Bos taurus, UniProt P00766); test: Chymotrypsin inhibition assay; type: biochemical; parameters: key: N.I.: there was no inhibitory activity; details: substrate Succinyl-Ala-Ala-Pro-Phe-NHMec
Description: (§1) Trypsin and chymotrypsin inhibition assays were performed as previously described. The substrate of trypsin and chymotrypsin were Phe-Pro-Arg-AMC and Succinyl-Ala-Ala-Pro-Phe-NHMec, respectively, and obtained from Bachem, Merseyside, UK. In the tryptase inhibition assay, peptide samples were first dissolved in tryptase assay buffer pH 7.6, containing 0.05 M Tris, 0.15 M NaCl and 0.2% (w/v) PEG 6000 (final volume 210 μL) to obtain different concentrations of 0.5, 1, 2 and 4 mM and then added to the wells of a black 96-well plate containing (Boc-Phe-Ser-Arg-NHMec, obtained from Bachem, Merseyside, UK) (50 μM). Before measurement, tryptase (2.5 μL from 1 mg/mL stock solution, Calbiochem, Nottingham, UK) was added to each well. The rate of hydrolysis of substrate was monitored continuously at 37 °C and 460 nm with a Fluostar Optima plate reader (BMG Labtech GmbH, Offenburg, Germany)

[3] = target: T2, trypsin (Bos taurus, UniProt P00760); test: Trypsin inhibition assay; type: biochemical; details: substrate Phe-Pro-Arg-AMC
T2 construct: gene PRSS1
T2 sequence (P00760 24-246): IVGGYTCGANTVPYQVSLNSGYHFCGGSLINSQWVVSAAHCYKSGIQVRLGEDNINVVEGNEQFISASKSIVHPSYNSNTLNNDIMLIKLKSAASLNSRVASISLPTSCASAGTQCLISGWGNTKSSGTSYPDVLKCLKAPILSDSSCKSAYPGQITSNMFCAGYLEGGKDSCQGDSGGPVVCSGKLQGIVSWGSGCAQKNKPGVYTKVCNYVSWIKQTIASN
Description: as §1

[4] = tested on: Escherichia coli (NCTC 10418); details: doubling-dilution method, up to 512 µM
[5] = tested on: HaCaT cells (human keratinocyte cell line); details: MTT, 24 h, 10^−9 to 10^−4 M; result in words
Description: (§2) Cells (5 × 10^3 cells/mL) were seeded into 96-well plates with FBS-containing fresh medium for 24 h. After that, cells were treated with corresponding serum-free culture medium for 12 h. […] After exposure for 6 h, all liquid was removed and 100 µL of DMSO was added. Finally, the absorbance of samples at 570 nm was determined using an ELISA plate reader (Biotech, Minneapolis, MN, USA).

[6] = tested on: HMEC-1 cells (human microvascular endothelial cell line); details: MTT, 24 h, 10^−9 to 10^−4 M; result in words
Description: as §2

[7] = tested on: human normal cell lines; details: MTT, 24 h, highest concentration tested 100 µM; result in words
Description: as §2

[8] = tested on: Pseudomonas aeruginosa (ATTC 27853); details: doubling-dilution method, up to 512 µM
[9] = tested on: Candida albicans (NCPF 1467); details: doubling-dilution method, up to 512 µM
[10] = target: T3, tryptase (Homo sapiens, UniProt Q15661); test: Tryptase inhibition assay; type: biochemical; details: substrate Boc-Phe-Ser-Arg-NHMec 50 μM; pH 7.6, 0.05 M Tris, 0.15 M NaCl, 0.2% PEG 6000; 37 °C; 460 nm
T3 construct: purchased Calbiochem, Nottingham, UK
T3 sequence (Q15661 31-275): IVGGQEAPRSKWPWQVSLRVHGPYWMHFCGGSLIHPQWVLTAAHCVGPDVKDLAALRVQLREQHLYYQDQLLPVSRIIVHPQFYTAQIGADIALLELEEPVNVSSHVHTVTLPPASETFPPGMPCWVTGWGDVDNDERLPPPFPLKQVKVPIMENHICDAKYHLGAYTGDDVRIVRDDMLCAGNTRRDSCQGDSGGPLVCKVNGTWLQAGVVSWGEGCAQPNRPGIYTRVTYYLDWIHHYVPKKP
Description: as §1

[11] = tested on: Methicillin-resistant Staphylococcus aureus (MRSA) (NCTC 12493); details: doubling-dilution method, up to 512 µM
[12] = tested on: Staphylococcus aureus (NCTC 10788); details: doubling-dilution method, up to 512 µM
[13] = tested on: Enterococcus faecalis (NCTC 12697); details: doubling-dilution method, up to 512 µM
[14] = tested on: Klebsiella pneumoniae (ATCC43816); details: doubling-dilution method, up to 512 µM
[15] = target: T1, chymotrypsin; parameters: method as in 2 sources, ref 24 = [24]; PMID 28356487; doi:10.1042/BSR20160593; 24. Wu Y. Long Q. Xu Y. Guo S. Chen T. Wang L. Zhou M. Zhang Y. Shaw C. Walker B. A structural and functional analogue of a Bowman–Birk-type protease inhibitor from Odorrana schmackeri Biosci. Rep. 20 ||| ref 32 = [32]; PMID 31337113; doi:10.3390/biom9070280; 32. Miao Y. Chen G. Xi X. Ma C. Wang L. Burrows J. Duan J. Zhou M. Chen T. Discovery and Rational Design of a Novel Bowman-Birk Related Protease Inhibitor Biomolecules 2019 9 280 10.3390/biom9070280 3; key: N.I.: there was no inhibitory activity; details: cited from earlier work
[16] = target: T3, tryptase; details: cited from earlier work; for tryptase inhibitory activity: result in words
Excerpt: Therefore, the emergence of a novel tryptase inhibitor would be an asset in the treatment of some clinical diseases. […] Some publications believe that protease inhibitors cannot work effectively when it comes t ...

[17] = target: T2, trypsin; details: cited from earlier work
Excerpt: Amino acid residues at P5′ are shaded. | column: Trypsin Inhibition Ki (nM) || In previous studies, extensive studies have been made to reveal the role played by each residue within the TIL in overall enzyme inhibitory activity. However, factors outside this conserved disulphide loop, which may affect trypsin inhibition activity, have rarely been studied. In 2012, Wang et al. discovered the peptide, HJTI, and designed one molecular variant to study the role that cationicity played in trypsin inhibitory potency. They believed that structural features, especially for amino acid residues lying outside the TIL, were crucial in modulating the effectiveness of trypsin inhibito ...

[18] = tested on: bacteria; details: result in words; cited from earlier work
Excerpt: (§3) Therefore, ranacyclins firstly approach to the membrane surface through hydrophobic interaction and then, at sites where peptide concentrations reach a threshold, insert into the hydrophobic core of the membrane bilaye ...

[19] = result in words; cited from earlier work
Excerpt: as §3

Molecule: CC(C)C[C@H](NC(=O)[C@H](C)NC(=O)CN)C(=O)N[C@@H](CCCNC(=N)N)C(=O)NCC(=O)N[C@H]1CSSC[C@@H](C(=O)N[C@@H](Cc2ccccc2)C(N)=O)NC(=O)[C@@H]2CCCN2C(=O)[C@H](CCC(N)=O)NC(=O)[C@@H]2CCCN2C(=O)[C@@H]2CCCN2C(=O)[C@H](Cc2ccc(O)cc2)NC(=O)[C@H](CO)NC(=O)[C@H](CCCCN)NC(=O)[C@H]([C@@H](C)O)NC(=O)[C@H](Cc2c[nH]c3ccccc23)NC1=O [RNF3L] (H-GALRGCWTKSYPPQPCF-NH2; disulfide 6-16; N-terminus assumed)
effect of the combination with Gentamicin ([1]; peptide with Gentamicin, class by ΣFIC): additive effect (0.5 < Σ FIC ≤ 4 indicates an additive effect)
Ki(µM) of Chymotrypsin [2]: N.I.

Molecule: C[C@H](NC(=O)CN)C(=O)N1CCC[C@H]1C(=O)N[C@@H](CCCNC(=N)N)C(=O)NCC(=O)N[C@H]1CSSC[C@@H](C(=O)N[C@@H](Cc2ccccc2)C(N)=O)NC(=O)[C@@H]2CCCN2C(=O)[C@H](CCC(N)=O)NC(=O)[C@@H]2CCCN2C(=O)[C@@H]2CCCN2C(=O)[C@H](Cc2ccc(O)cc2)NC(=O)[C@H](CO)NC(=O)[C@H](CCCCN)NC(=O)[C@H]([C@@H](C)O)NC(=O)[C@H](Cc2c[nH]c3ccccc23)NC1=O [RNF] (H-GAPRGCWTKSYPPQPCF-NH2; disulfide 6-16)
Ki [3]: 0.447 µM
MBC E. coli [4]: > 512 µM
MIC E. coli [4]: > 512 µM
cytotoxicity on HaCaT [5]: negligible cytotoxicity
cytotoxicity on HMEC-1 [6]: negligible cytotoxicity
cytotoxicity [7]: negligible direct cytotoxicity
MBC P. aeruginosa [8]: > 512 µM
MIC P. aeruginosa [8]: > 512 µM
MBC C. albicans [9]: > 512 µM
MIC C. albicans [9]: > 512 µM
Ki [10]: 6.77 µM
MBC MRSA [11]: > 512 µM
MIC MRSA [11]: > 512 µM
MBC S. aureus [12]: > 512 µM
MIC S. aureus [12]: 512 µM (≈ 969 µg/mL)
MBC E. faecalis [13]: > 512 µM
MIC E. faecalis [13]: > 512 µM
MBC K. pneumoniae [14]: > 512 µM
MIC K. pneumoniae [14]: > 512 µM

Molecule: AALKGCWTKSIPPKPCF-NH2 (disulfide 6-16 (inferred)) [OSTI]
Ki(µM) of Chymotrypsin [15]: N.I.
tryptase inhibitory activity [16]: obvious tryptase inhibitory activity

Molecule: ALRGCWTKSIPPKPCP-NH2 (disulfide) (disulfide 5-15; N-terminus assumed; SMILES CC[C@H](C)[C@@H]1NC(=O)[C@H](CO)NC(=O)[C@H](CCCCN)NC(=O)[C@H]([C@@H](C)O)NC(=O)[C@H](Cc2c[nH]c3ccccc23)NC(=O)[C@@H](NC(=O)CNC(=O)[C@H](CCCNC(=N)N)NC(=O)[C@H](CC(C)C)NC(=O)[C@H](C)N)CSSC[C@@H](C(=O)N2CCC[C@H]2C(N)=O)NC(=O)[C@@H]2CCCN2C(=O)[C@H](CCCCN)NC(=O)[C@@H]2CCCN2C(=O)[C@@H]2CCCN2C1=O) [PPF-BBI]
Ki [16]: 30.7 µM
Ki [17]: 0.17 µM

Molecule: C[C@H](NC(=O)CN)C(=O)N1CCC[C@H]1C(=O)N[C@@H](CCCNC(=N)N)C(=O)NCC(=O)N[C@H]1CSSC[C@@H](C(=O)N[C@@H](Cc2ccccc2)C(=O)O)NC(=O)[C@@H]2CCCN2C(=O)[C@H](CCC(N)=O)NC(=O)[C@@H]2CCCN2C(=O)[C@@H]2CCCN2C(=O)[C@H](Cc2ccc(O)cc2)NC(=O)[C@H](CO)NC(=O)[C@H](CCCCN)NC(=O)[C@H]([C@@H](C)O)NC(=O)[C@H](Cc2c[nH]c3ccccc23)NC1=O [RNF1] (H-GAPRGCWTKSYPPQPCF-OH; disulfide 6-16)
Ki [3]: 1.3 µM
MBC E. coli [4]: > 512 µM
MIC E. coli [4]: > 512 µM
MBC P. aeruginosa [8]: > 512 µM
MIC P. aeruginosa [8]: > 512 µM
MBC C. albicans [9]: > 512 µM
MIC C. albicans [9]: > 512 µM
Ki [10]: 9.06 µM
MBC MRSA [11]: > 512 µM
MIC MRSA [11]: > 512 µM
MBC S. aureus [12]: > 512 µM
MIC S. aureus [12]: > 512 µM
MBC E. faecalis [13]: > 512 µM
MIC E. faecalis [13]: > 512 µM
MBC K. pneumoniae [14]: > 512 µM
MIC K. pneumoniae [14]: > 512 µM

Molecule: ALRGCWTKSIPPKPCP-NH2 (disulfide 5-15 (inferred)) [PPF-BBI]
Ki(µM) of Chymotrypsin [15]: N.I.
tryptase inhibitory activity [16]: obvious tryptase inhibitory activity

Molecule: AALKGCWTKSIPPKPCF-NH2 (disulfide) (disulfide 6-16; N-terminus assumed; SMILES CC[C@H](C)[C@@H]1NC(=O)[C@H](CO)NC(=O)[C@H](CCCCN)NC(=O)[C@H]([C@@H](C)O)NC(=O)[C@H](Cc2c[nH]c3ccccc23)NC(=O)[C@@H](NC(=O)CNC(=O)[C@H](CCCCN)NC(=O)[C@H](CC(C)C)NC(=O)[C@H](C)NC(=O)[C@H](C)N)CSSC[C@@H](C(=O)N[C@@H](Cc2ccccc2)C(N)=O)NC(=O)[C@@H]2CCCN2C(=O)[C@H](CCCCN)NC(=O)[C@@H]2CCCN2C(=O)[C@@H]2CCCN2C1=O) [OSTI]
Ki [16]: 2.5 µM
Ki [17]: 0.0003 µM

MIC ([1]; read-out: MIC of Gentamicin against MRSA, Gentamicin alone, 37 °C, 18 h): 2 µM
MIC ([1]; read-out: MIC of Gentamicin against MRSA, in the presence of RNF and its analogues, 37 °C, 18 h): 1 µM
Molecule: CNC(C)C1CCC(N)C(OC2C(N)CC(N)C(OC3OCC(C)(O)C(NC)C3O)C2O)O1 (stereo not drawn) [Gentamicin]

Molecule: GALRGCWTKSYPPKPCK-NH2 (disulfide 6-16 (inferred)) [Ranacyclin-T]
antimicrobial activity with respect to RNF [18]: relatively stronger antimicrobial activity
secondary structure [19]: beta-sheet structure

Molecule: GAPKGCWTKSYPPQPCS-NH2 (disulfide) (disulfide 6-16; N-terminus assumed; SMILES C[C@H](NC(=O)CN)C(=O)N1CCC[C@H]1C(=O)N[C@@H](CCCCN)C(=O)NCC(=O)N[C@H]1CSSC[C@@H](C(=O)N[C@@H](CO)C(N)=O)NC(=O)[C@@H]2CCCN2C(=O)[C@H](CCC(N)=O)NC(=O)[C@@H]2CCCN2C(=O)[C@@H]2CCCN2C(=O)[C@H](Cc2ccc(O)cc2)NC(=O)[C@H](CO)NC(=O)[C@H](CCCCN)NC(=O)[C@H]([C@@H](C)O)NC(=O)[C@H](Cc2c[nH]c3ccccc23)NC1=O) [HJTI, Odorrana hejiangensis]
Ki [17]: 0.388 µM

Molecule: GALRGCWTKSYPPKPCK-NH2 (disulfide) (disulfide 6-16) [Ranacyclin-T]
Ki [17]: 0.116 µM
